# Assays:
# Dusp6 = target: T1, Dusp6 (Homo sapiens, UniProt Q16828); assay: Chemical complementation assay in HeLa cells, pERK restoration, Dusp6-Myc; type: cell-based; parameters: expressed in transfected cells; host or cells: HeLa cells, pcDNA3.1, FuGene 6; conditions: TPA stimulated
# T1 sequence (Q16828 1-381): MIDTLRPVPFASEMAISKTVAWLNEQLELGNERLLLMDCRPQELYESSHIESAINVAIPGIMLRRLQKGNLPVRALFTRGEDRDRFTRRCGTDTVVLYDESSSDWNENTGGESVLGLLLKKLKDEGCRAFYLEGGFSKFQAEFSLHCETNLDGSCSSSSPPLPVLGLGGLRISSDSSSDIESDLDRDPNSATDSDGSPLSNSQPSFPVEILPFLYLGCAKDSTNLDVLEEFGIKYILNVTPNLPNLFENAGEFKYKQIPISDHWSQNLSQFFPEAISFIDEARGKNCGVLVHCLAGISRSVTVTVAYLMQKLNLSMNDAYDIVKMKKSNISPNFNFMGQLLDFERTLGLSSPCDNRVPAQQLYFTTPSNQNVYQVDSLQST
# Experimental: (§1) These experiments were carried out essentially as described26. HeLa cells were obtained from ATCC (Manassas, Va.) and maintained in a humidified atmosphere of 5% CO2 at 37° C., Dulbecco's […] (DMEM) supplemented with 10% fetal bovine serum (FBS, HyClone, Logan, Utah), and 1% penicillin-streptomycin (Life Technologies, Inc., Rockville, Md.). c-Myc-Dusp6 and c-Myc-Dusp1 (also known as CL100) (kindly provided by Dr. Stephen Keyse, University of Dundee) were subcloned into pcDNA3.1 for ectopic expression in mammalian cells50. […] Plates were analyzed by three-channel multiparametric analysis for p-ERK and c-Myc-DUSP intensities in an area defined by nuclear staining using the Compartmental Analysis Bioapplication on an ArrayScan II high-content reader (Cellomics, Pittsburgh, Pa.). Restoration of ERK phosphorylation by BCI in Dusp6 overexpressing cells was quantified by Kolmogorov-Smirnov (KS) statistics as described previously using DUSP-transfected and vehicle treated control wells26. One thousand individual cells were gated for Dusp-Myc expression based on c-Myc immunostaining and analyzed for ERK phosphorylation. […] To quantify restoration of Erk phosphorylation in the Dusp expressing cells after compound treatment, KS values for each condition were normalized to the average KS value from four wells transfected with Dusp1 or Dusp6 and treated with vehicle. […]
# [1] = target: T2, recombinant His-tagged Dusp6 (Homo sapiens, UniProt Q16828); assay: In vitro pERK2 dephosphorylation assay (Western blot); type: biochemical; conditions: 100 μM
# T2 construct: His
# T2 sequence (Q16828 1-381): T1 sequence (Q16828 1-381)
# Experimental: ERK dephosphorylation assays were performed as described previously with several modifications (Lazo, J. S. et al. J Pharmacol Exp Ther 322, 940-7 (2007)). Briefly, recombinant His-tagged Dusp6 (1.5 ng) was incubated for 20 minutes at 25° C. in the presence of 100 μM BCI, 100 μM ICD or 1 mM sodium orthovanadate. Tyrosine and threonine phosphorylated ERK2 (New England Biolabs; 10 ng) was added and reaction mixture (30 mM Tris-HCl, pH 7.0, 75 mM NaCl, 0.67 mM EDTA, 1 mM DTT and 0.033% bovine serum albumin) was incubated at 25° C. for a further 60 min. ERK desphosphorylation was determined by Western blotting using 10% Tris-glycine gels and a monoclonal phospho-p44/42 MAPK antibody (Cell Signaling) at 1:1000 dilution. Total ERK was measured as a loading control using an anti-ERK antibody (Cell Signaling).
# human Dusp1 = target: T3, human Dusp1 (Homo sapiens, UniProt P28562); assay: Chemical complementation assay in HeLa cells, pERK restoration, Dusp1-Myc; type: cell-based; conditions: TPA stimulated
# T3 construct: expressed in transfected cells; host or cells: HeLa cells, pcDNA3.1, FuGene 6
# T3 sequence (P28562 1-367): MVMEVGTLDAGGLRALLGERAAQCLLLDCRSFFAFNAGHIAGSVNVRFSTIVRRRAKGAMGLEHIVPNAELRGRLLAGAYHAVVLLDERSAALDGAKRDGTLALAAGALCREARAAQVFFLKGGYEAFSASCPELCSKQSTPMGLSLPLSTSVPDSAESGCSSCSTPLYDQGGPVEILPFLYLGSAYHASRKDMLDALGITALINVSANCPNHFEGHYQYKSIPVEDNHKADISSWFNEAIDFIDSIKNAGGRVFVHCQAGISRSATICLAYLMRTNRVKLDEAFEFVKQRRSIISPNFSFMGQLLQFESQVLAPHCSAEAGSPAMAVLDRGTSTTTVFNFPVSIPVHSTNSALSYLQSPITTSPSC
# Experimental: as §1
block of Dusp6 activity in chemical complementation assay (Dusp6),block of Dusp1 activity in chemical complementation assay (human Dusp1),SMILES,"IC50 (Dusp6; 15 min compound, read-out: IC50, Dusp6 inhibition (pERK restoration)) [µM]",suppression of Dusp6-mediated pERK2 dephosphorylation [1],"IC50 (human Dusp1; 15 min compound, read-out: IC50, Dusp1 inhibition (pERK restoration)) [µM]"
,,"O=C1/C(=C/c2ccccc2)C(NC2CCCCC2)c2ccccc21 (stereo not drawn) [Compound 3, (E)-2-benzylidene-3-(cyclohexylamino)-2,3-dihydro-1H-inden-1-one]",16,specifically suppressed Dusp6 activity,11.2
did not block,did not block,"O=C1CC(NC2CCCCC2)c2ccccc21 (stereo not drawn) [Compound 17, 3-(Cyclohexylamino)-2,3-dihydro-1H-inden-1-one]",,did not,

# Source: patent US9127016B2, “Small molecule inhibitors of Dusp6 and uses therefor” (University of Pittsburgh—Of the Commonwealth System of …, priority 2009, dated 2015)
